According to patent US7378494B2, “Pituitary adenylate cyclase activating peptide (PACAP) receptor (VPAC2) agonist peptide” (Bayer HealthCare AG, priority 2002, dated 2008):

Target: T1, VPAC1 (Homo sapiens, UniProt P32241)
T1 sequence (P32241 31-457): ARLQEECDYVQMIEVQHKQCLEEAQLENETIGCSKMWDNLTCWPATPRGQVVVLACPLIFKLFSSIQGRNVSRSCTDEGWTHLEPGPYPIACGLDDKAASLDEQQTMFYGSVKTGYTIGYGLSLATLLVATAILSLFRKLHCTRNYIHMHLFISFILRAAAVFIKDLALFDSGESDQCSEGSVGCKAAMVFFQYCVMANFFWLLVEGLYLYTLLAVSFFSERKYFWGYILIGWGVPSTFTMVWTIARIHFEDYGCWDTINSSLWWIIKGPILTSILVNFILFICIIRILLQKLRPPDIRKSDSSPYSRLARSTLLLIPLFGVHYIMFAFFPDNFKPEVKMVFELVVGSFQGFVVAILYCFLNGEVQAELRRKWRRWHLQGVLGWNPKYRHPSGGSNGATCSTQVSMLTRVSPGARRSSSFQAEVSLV
Assay: Cyclic AMP SPA, cells expressing VPAC1
Format: cell-based

agonist activity on VPAC1 (in words): potent agonist
Substance: PACAP-27
